Conditions: Liquid; for speed of sound: Pulse-echo method; for mass density: Vibrating tube method

CCCCCCCCCCCCCCCC(=O)OC [methyl hexadecanoate]
Conditions	mass density [kg/m3]	speed of sound [m/s]
313.15 K, 100 kPa	–	1317.2
313.15 K, 101.3 kPa	849.9	–
313.15 K, 10000 kPa	856.3	1365.4
313.15 K, 20000 kPa	861.8	1411.5
313.15 K, 30000 kPa	867.9	1454.4
313.15 K, 40000 kPa	872.1	1494.8
313.15 K, 50000 kPa	878.4	–
323.15 K, 100 kPa	–	1283.4
323.15 K, 101.3 kPa	842.5	–
323.15 K, 10000 kPa	849	1333.7
323.15 K, 20000 kPa	855.5	1381.1
323.15 K, 30000 kPa	861.4	1425.2
323.15 K, 40000 kPa	866.8	1467.4
323.15 K, 50000 kPa	871.8	1506.9
333.15 K, 101.3 kPa	835.2	–
333.15 K, 10000 kPa	842	–
333.15 K, 20000 kPa	848.7	–
333.15 K, 30000 kPa	854.9	–
333.15 K, 40000 kPa	860.4	–
333.15 K, 50000 kPa	866.7	–
343.15 K, 100 kPa	–	1215.3
343.15 K, 101.3 kPa	827.8	–
343.15 K, 10000 kPa	835.1	1270.1
343.15 K, 20000 kPa	842	1319.7
343.15 K, 30000 kPa	848.5	1366.8
343.15 K, 40000 kPa	854.4	1410.5
343.15 K, 50000 kPa	859.6	1450.6
353.15 K, 101.3 kPa	820.4	–
353.15 K, 10000 kPa	827.7	–
353.15 K, 20000 kPa	835.1	–
353.15 K, 30000 kPa	841.7	–
353.15 K, 40000 kPa	847.9	–
353.15 K, 50000 kPa	853.8	–
363.15 K, 100 kPa	–	1150.1
363.15 K, 101.3 kPa	812.8	–
363.15 K, 10000 kPa	820.3	1208.9
363.15 K, 20000 kPa	828	1262.5
363.15 K, 30000 kPa	835	1311.1
363.15 K, 40000 kPa	843.8	1355.7
363.15 K, 50000 kPa	848.6	1400.9
373.15 K, 101.3 kPa	804.6	–
373.15 K, 10000 kPa	813.8	–
373.15 K, 20000 kPa	821.7	–
373.15 K, 30000 kPa	829	–
373.15 K, 40000 kPa	835.7	–
373.15 K, 50000 kPa	841.9	–
383.15 K, 100 kPa	–	1087.2
383.15 K, 101.3 kPa	797.4	–
383.15 K, 10000 kPa	806.8	1150.3
383.15 K, 20000 kPa	815.1	1207.5
383.15 K, 30000 kPa	822.7	1259.3
383.15 K, 40000 kPa	829.6	1310.8
383.15 K, 50000 kPa	836.5	1358.3
393.15 K, 100 kPa	–	1056.9
393.15 K, 10000 kPa	–	1121.2
393.15 K, 20000 kPa	–	1180.4
393.15 K, 30000 kPa	–	1234.2
393.15 K, 40000 kPa	–	1284.7
393.15 K, 50000 kPa	–	1334

Reference: the NIST ThermoML archive (doi:10.1021/je400122k)
